Eleven compounds from PubChem BioAssay (NCI) can be followed below.

SMILES strings stand for the structures.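 96-well plates; 48 h exposure; 5 concentrations. Endpoints by linear interpolation between flanking doses. Not reached: highest tested concentration assigned. TGI is the concentration that stops growth completely.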

Some test systems named below: 786-0 renal; A498 renal; ACHN renal; CAKI-1 renal; CCRF-CEM leukemia; EKVX NSCLC; M14 melanoma; MDA-MB-231 breast; NCI-H23 lung; NCI/ADR-RES ovarian; OVCAR-3 ovarian; PC-3 prostate; RXF 393 renal; SF-268 CNS; SF-295 CNS; SK-MEL-2 melanoma; SK-MEL-5 melanoma; SNB-75 CNS; SR leukemia; UACC-62 melanoma.
Common to all, as to test: inhibition of tumour cell growth, NCI panel, 48 h

Regarding `O=C(O)c1ccc(Nc2nc3cc(C(F)(F)F)ccc3n3cccc23)cc1`, the TGI was 65.5 µM in the assay with 786-0 renal; > 100 µM in the assay on A498 renal; > 100 µM with ACHN renal; > 100 µM in the assay with CAKI-1 renal; > 100 µM in the assay with CCRF-CEM leukemia; > 100 µM with EKVX NSCLC. Moreover, the TGI in the assay on M14 melanoma is 80.5 µM; in the assay with MDA-MB-231 breast, 49.8 µM; with NCI-H23 lung, > 100 µM; in the assay with NCI/ADR-RES ovarian, > 100 µM; in the assay with OVCAR-3 ovarian, > 100 µM; in the assay with PC-3 prostate it was 93.5 µM. In addition, the TGI was 58.8 µM with RXF 393 renal; > 100 µM in the assay on SF-268 CNS; > 100 µM with SF-295 CNS; > 100 µM in the assay on SK-MEL-2 melanoma; 38.8 µM with SK-MEL-5 melanoma; 81 µM in the assay with SNB-75 CNS. Besides, the figures for the TGI with SR leukemia and in the assay with UACC-62 melanoma were 41.6 µM and 77.8 µM, respectively.

Take `CCOC(=O)c1cc(C2CCN(c3ccccc3)C2=O)c(C(=O)/C=C(/C)N)[nH]1` (stereo not given): the TGI is 21.8 µM in the assay on 786-0 renal; > 100 µM in the assay with A498 renal; > 100 µM in the assay on ACHN renal; 81.6 µM with CAKI-1 renal; > 100 µM in the assay on CCRF-CEM leukemia; > 100 µM with EKVX NSCLC. In addition, the TGI with M14 melanoma, in the assay on MDA-MB-231 breast, in the assay on NCI-H23 lung, in the assay on NCI/ADR-RES ovarian, with OVCAR-3 ovarian and with PC-3 prostate was > 100 µM throughout. Moreover, the TGI in the assay on RXF 393 renal is 78.6 µM; in the assay with SF-268 CNS, > 100 µM; in the assay with SF-295 CNS, 46.7 µM; in the assay on SK-MEL-2 melanoma, > 100 µM; in the assay with SK-MEL-5 melanoma it was > 100 µM; with SNB-75 CNS it was 28.2 µM. In addition, the TGI is > 100 µM in the assay on SR leukemia and 40.1 µM with UACC-62 melanoma.

On to `CC/C=C/C[C@H](O)[C@H]1C[C@H]2O[C@H](CC(=O)OC)C[C@H]2O1`, for which the TGI in the assay on 786-0 renal, in the assay with A498 renal, in the assay on ACHN renal, in the assay on CAKI-1 renal, in the assay on CCRF-CEM leukemia and in the assay on EKVX NSCLC was > 100 µM throughout. The TGI with M14 melanoma, in the assay on MDA-MB-231 breast, in the assay on NCI-H23 lung, in the assay with NCI/ADR-RES ovarian, in the assay on OVCAR-3 ovarian and with PC-3 prostate was > 100 µM in each case. The TGI with RXF 393 renal, in the assay with SF-268 CNS, with SF-295 CNS, in the assay on SK-MEL-2 melanoma, in the assay on SK-MEL-5 melanoma and with SNB-75 CNS was > 100 µM in each case. Also, the TGI in the assay on SR leukemia and with UACC-62 melanoma was > 100 µM each time.

`CC(C)(C)OC(=O)CN1CCN(CC(=O)N2CCN(C(=O)OCc3ccccc3)CC2)CCN(CC(=O)OC(C)(C)C)CCN(CC(=O)N2CCN(C(=O)OCc3ccccc3)CC2)CC1`: the TGI with 786-0 renal was determined as 7.42 µM; with A498 renal, 35.7 µM; with ACHN renal it was 22.3 µM; with CAKI-1 renal, 23.4 µM; in the assay on CCRF-CEM leukemia it was 3.51 µM; with EKVX NSCLC it was 34.3 µM. Further, the TGI in the assay on M14 melanoma turned out to be 14.3 µM; in the assay with MDA-MB-231 breast it was 5.01 µM; with NCI-H23 lung, 12.5 µM; with NCI/ADR-RES ovarian it was 34.4 µM; with OVCAR-3 ovarian it was 13.1 µM; in the assay with PC-3 prostate it was 12.5 µM. Besides, the TGI was determined as 17 µM in the assay on RXF 393 renal; 7.34 µM in the assay on SF-268 CNS; 13.8 µM in the assay with SF-295 CNS; 5.54 µM with SK-MEL-2 melanoma; 3.92 µM in the assay with SK-MEL-5 melanoma; 4.75 µM in the assay on SNB-75 CNS. The TGI is 1.75 µM in the assay with SR leukemia and 7.59 µM in the assay on UACC-62 melanoma.

With `CCOC(=O)C(O)(C(=O)OCC)c1cc(C(C)(C)C)c(O)c(C(C)(C)C)c1`, the TGI in the assay with 786-0 renal, with A498 renal, in the assay on ACHN renal, in the assay with CAKI-1 renal, with CCRF-CEM leukemia and in the assay with EKVX NSCLC was > 100 µM in each case. Besides, the TGI with M14 melanoma, in the assay on MDA-MB-231 breast, in the assay with NCI-H23 lung, with NCI/ADR-RES ovarian, in the assay with OVCAR-3 ovarian and with PC-3 prostate was > 100 µM in each case. The TGI is 77.1 µM in the assay on RXF 393 renal; > 100 µM with SF-268 CNS; 52.5 µM in the assay with SF-295 CNS; > 100 µM in the assay on SK-MEL-2 melanoma; 32.9 µM with SK-MEL-5 melanoma; > 100 µM in the assay on SNB-75 CNS. Also, the TGI in the assay with SR leukemia and with UACC-62 melanoma was > 100 µM in each case.

With `O=[N+]([O-])/C(C(Cl)=C(Cl)Cl)=C(\N1CCCCC1)n1nnc2ccccc21`, the TGI was 33.5 µM in the assay on 786-0 renal; 39.1 µM with A498 renal; 42.3 µM in the assay on ACHN renal; > 55.9 µM in the assay with CAKI-1 renal; 14.5 µM with CCRF-CEM leukemia; 26.4 µM in the assay on EKVX NSCLC. Also, the TGI was 32.5 µM in the assay with M14 melanoma; 34.5 µM in the assay on MDA-MB-231 breast; 38.8 µM in the assay on NCI-H23 lung; > 81.1 µM in the assay with NCI/ADR-RES ovarian; 32.6 µM with OVCAR-3 ovarian; 32.8 µM in the assay on PC-3 prostate. Besides, the TGI in the assay with RXF 393 renal was 43.6 µM; in the assay on SF-268 CNS, 45 µM; with SF-295 CNS it was 33.3 µM; in the assay with SK-MEL-2 melanoma, 37.7 µM; in the assay on SK-MEL-5 melanoma, 32.7 µM; in the assay on SNB-75 CNS it was > 65.5 µM. Besides, the TGI came to 58.4 µM in the assay with SR leukemia and 36.7 µM in the assay on UACC-62 melanoma.

For `COc1cc(NC=C2C(=O)OC(C)(C)OC2=O)c(OC)c(C)c1OC`, the TGI in the assay on 786-0 renal, in the assay on A498 renal, in the assay with ACHN renal, in the assay on CAKI-1 renal, in the assay with CCRF-CEM leukemia and in the assay on EKVX NSCLC was > 100 µM each time. In addition, the TGI with M14 melanoma, in the assay with MDA-MB-231 breast, in the assay with NCI-H23 lung, in the assay on NCI/ADR-RES ovarian, with OVCAR-3 ovarian and in the assay on PC-3 prostate was > 100 µM each time. In addition, the TGI with RXF 393 renal, in the assay on SF-268 CNS, with SF-295 CNS, with SK-MEL-2 melanoma, with SK-MEL-5 melanoma and in the assay with SNB-75 CNS was > 100 µM throughout. Moreover, the TGI in the assay with SR leukemia and in the assay on UACC-62 melanoma was > 100 µM each time.

On to `COP(=O)(OC)/C(=C/c1cn(C(c2ccccc2)(c2ccccc2)c2ccccc2)cn1)NC=O`, for which the TGI with 786-0 renal is > 100 µM; with A498 renal it was 32 µM; in the assay on ACHN renal, 24.6 µM; in the assay on CAKI-1 renal, 62.3 µM; in the assay on CCRF-CEM leukemia, > 100 µM; in the assay with EKVX NSCLC, 56.9 µM. For the same compound, the TGI in the assay on M14 melanoma was 34.4 µM; in the assay with MDA-MB-231 breast it was 33.5 µM; with NCI-H23 lung, 41.2 µM; with NCI/ADR-RES ovarian it was > 100 µM; in the assay with OVCAR-3 ovarian it was 30.2 µM; in the assay on PC-3 prostate, > 100 µM. Further, the TGI worked out at 35.1 µM in the assay on RXF 393 renal; 33.1 µM in the assay on SF-268 CNS; 30.5 µM in the assay with SF-295 CNS; 34.4 µM in the assay on SK-MEL-2 melanoma; 27.5 µM in the assay on SK-MEL-5 melanoma; 23.3 µM in the assay on SNB-75 CNS. Also, the TGI in the assay with SR leukemia was > 100 µM; with UACC-62 melanoma it was 41.3 µM.

With `Nc1c2c(nc3ccccc13)-c1ccccc1NCCC2`, the TGI in the assay with 786-0 renal is 32.4 µM; in the assay on A498 renal, 55.5 µM; with ACHN renal it was > 100 µM; in the assay on CAKI-1 renal, > 100 µM; in the assay on CCRF-CEM leukemia, 81.3 µM; with EKVX NSCLC, > 100 µM. In addition, the TGI is 33.3 µM in the assay with M14 melanoma; 53.5 µM with MDA-MB-231 breast; > 100 µM in the assay with NCI-H23 lung; > 100 µM in the assay with NCI/ADR-RES ovarian; > 100 µM in the assay with OVCAR-3 ovarian; > 100 µM in the assay with PC-3 prostate. For the same compound, the TGI was 33.2 µM in the assay with RXF 393 renal; > 100 µM with SF-268 CNS; 50.8 µM in the assay on SF-295 CNS; 37.1 µM in the assay with SK-MEL-2 melanoma; 28.6 µM in the assay with SK-MEL-5 melanoma; > 100 µM with SNB-75 CNS. Also, the TGI in the assay with SR leukemia was > 100 µM; with UACC-62 melanoma, 41.2 µM.

With `O=S(=O)(/N=C(\NO)Nc1ccc(Cl)cc1)c1ccccc1`, the TGI was 16.9 µM with 786-0 renal; 27.3 µM in the assay with A498 renal; 36.3 µM in the assay on ACHN renal; 23 µM in the assay on CAKI-1 renal; > 100 µM in the assay with CCRF-CEM leukemia; 26.1 µM in the assay with EKVX NSCLC. Besides, the TGI with M14 melanoma was 48.6 µM; with MDA-MB-231 breast it was > 100 µM; with NCI-H23 lung it was > 100 µM; with NCI/ADR-RES ovarian, 60.3 µM; in the assay on OVCAR-3 ovarian it was 8.89 µM; in the assay on PC-3 prostate, 37.3 µM. The TGI in the assay on RXF 393 renal is 40 µM; in the assay on SF-268 CNS, > 70.3 µM; in the assay on SF-295 CNS, > 100 µM; in the assay with SK-MEL-2 melanoma, 29.6 µM; in the assay on SK-MEL-5 melanoma it was 21.8 µM; with SNB-75 CNS, 19.4 µM. The results for the TGI in the assay on SR leukemia and in the assay on UACC-62 melanoma were 9.91 µM and 36.9 µM, respectively.

As for `COC(=O)/C=C\C(C#N)(C#N)N=Cc1sccc1C`, the TGI with 786-0 renal came out at 4.34 µM; in the assay with A498 renal it was 27.9 µM; in the assay with ACHN renal, 3.8 µM; with CAKI-1 renal, 3.51 µM; in the assay on CCRF-CEM leukemia, 4.19 µM; in the assay on EKVX NSCLC, 15 µM. Besides, the TGI with M14 melanoma was found to be 5.48 µM; with MDA-MB-231 breast, 1.93 µM; in the assay on NCI-H23 lung, 25.3 µM; with NCI/ADR-RES ovarian, 32.7 µM; in the assay with OVCAR-3 ovarian it was 16 µM; in the assay on PC-3 prostate it was 19.8 µM. In addition, the TGI was 4.22 µM in the assay on RXF 393 renal; 26.1 µM with SF-268 CNS; 35.1 µM in the assay with SF-295 CNS; 30.2 µM in the assay on SK-MEL-2 melanoma; 4.78 µM in the assay on SK-MEL-5 melanoma; 28.4 µM in the assay on SNB-75 CNS. Moreover, the results for the TGI in the assay on SR leukemia and in the assay on UACC-62 melanoma were > 100 µM and 17 µM, respectively.
